Experimental data as given in ChEMBL document CHEMBL1944520, “Discovery of 3-aryloxy-lactam analogs as potent androgen receptor full antagonists for treating castration resistant prostate cancer” (Bioorg Med Chem Lett, 2012).
pIC50: −log10 of the molar value. Converted amounts (≈) assume the structure as drawn.

How the values were obtained:
[1] = molecular target: T1, Androgen receptor (Homo sapiens) (UniProt P10275); experiment: Agonist activity at androgen receptor expressed in human LNAR cells as induction of luciferase activity by spectrophotometry relative to untreated control; assay type: functional, cell-based
T1 sequence (whole entry): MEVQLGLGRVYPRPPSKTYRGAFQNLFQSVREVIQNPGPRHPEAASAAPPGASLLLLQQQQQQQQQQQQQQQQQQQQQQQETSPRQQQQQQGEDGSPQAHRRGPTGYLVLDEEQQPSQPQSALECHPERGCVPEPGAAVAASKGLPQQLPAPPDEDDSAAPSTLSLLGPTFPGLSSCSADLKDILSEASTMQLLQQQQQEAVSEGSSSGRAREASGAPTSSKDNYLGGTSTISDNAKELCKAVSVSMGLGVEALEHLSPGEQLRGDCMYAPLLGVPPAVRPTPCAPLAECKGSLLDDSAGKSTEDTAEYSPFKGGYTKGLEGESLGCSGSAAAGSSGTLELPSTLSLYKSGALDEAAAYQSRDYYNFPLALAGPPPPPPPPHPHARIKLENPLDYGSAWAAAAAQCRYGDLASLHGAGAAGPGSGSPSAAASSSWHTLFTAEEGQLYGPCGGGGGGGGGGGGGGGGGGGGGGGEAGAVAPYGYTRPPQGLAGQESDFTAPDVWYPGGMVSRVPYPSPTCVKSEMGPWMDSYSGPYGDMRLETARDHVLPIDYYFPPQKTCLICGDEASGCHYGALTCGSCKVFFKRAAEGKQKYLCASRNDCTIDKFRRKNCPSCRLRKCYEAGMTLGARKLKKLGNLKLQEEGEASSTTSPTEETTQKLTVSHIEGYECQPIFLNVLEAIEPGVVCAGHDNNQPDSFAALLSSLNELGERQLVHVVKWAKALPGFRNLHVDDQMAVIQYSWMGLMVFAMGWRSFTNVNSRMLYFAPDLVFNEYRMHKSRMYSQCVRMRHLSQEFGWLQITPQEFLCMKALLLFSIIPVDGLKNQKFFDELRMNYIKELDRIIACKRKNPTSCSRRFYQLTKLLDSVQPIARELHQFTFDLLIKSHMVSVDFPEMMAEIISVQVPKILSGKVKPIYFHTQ

[2] = molecular target: T1, Androgen receptor (Homo sapiens); experiment: Antagonist activity at androgen receptor expressed in human LNAR cells assessed as inhibition of R1881-induced luciferase activity at 1 uM by spectrophotometry; assay type: functional, cell-based
[3] = molecular target: T2, Androgen receptor (Homo sapiens, UniProt P10275); experiment: Antagonist activity at androgen receptor expressed in human LNAR cells assessed as inhibition of R1881-induced luciferase activity by spectrophotometry; assay type: functional, cell-based
T2 sequence (P10275 whole entry): T1 sequence (whole entry)

[4] = test system: Liver microsomes; experiment: Unbound intrinsic clearance in human liver microsomes; assay type: ADME, Microsome
[5] = Oral bioavailability in rat; assay type: ADME, organism-based; settings: in vivo
[6] = Solubility of the compound at pH 7.4; assay type: physicochemical; settings: buffer
[7] = Fraction unbound in human; assay type: ADME, organism-based; settings: in vivo
[8] = test system: Rattus norvegicus; experiment: Unbound plasma clearance in iv dosed rat; assay type: ADME, organism-based; settings: in vivo
[9] = molecular target: T1, Androgen receptor (Homo sapiens); experiment: Antagonist activity at androgen receptor expressed in human LNAR cells assessed as inhibition of R1881-induced luciferase activity at 0.1 uM by spectrophotometry; assay type: functional, cell-based

Row | Structure (SMILES) | fold change (FC) [1] | inhibition [2] [%] | pIC50 [3] | other results
1 | CC1(C)CN(CCC#N)C(=O)[C@@H]1Oc1cnc(C#N)c(C(F)(F)F)c1 | 0.89 | 52 | – | –
2 | COC(=O)CN1CC(C)(C)C(Oc2ccc(C#N)c(C(F)(F)F)c2)C1=O (racemic) | 1.05 | – | 6.52 | –
3 | CC(O)CN1CC(C)(C)[C@@H](Oc2ccc(C#N)c(C(F)(F)F)c2)C1=O (stereo in doubt; 18) [listing 1 of 2 here] | 0.99 | – | – | –
4 | CC1(C)CN(Cc2nnc(-c3ccccc3)o2)C(=O)[C@@H]1Oc1ccc(C#N)c(C(F)(F)F)c1 | 0.95 | – | 7.15 | CL free [4]: 19.3 µL/min/mg; bioavailability [5]: 10%; solubility [6]: 5.9 µg/mL (≈ 12.9 µM); fraction unbound [7]: 0.0127; CL free [8]: 921 mL/min/kg
5 | CC(CO)N1CC(C)(C)[C@@H](Oc2ccc(C#N)c(C(F)(F)F)c2)C1=O (stereo in doubt; 15) [listing 1 of 2 here] | – | – | 6.47 | –
6 | CC(CO)N1CC(C)(C)[C@@H](Oc2ccc(C#N)c(C(F)(F)F)c2)C1=O (stereo in doubt; 14) [listing 1 of 2 here] | 1.06 | – | – | –
7 | C[C@@H](c1nnc(-c2ccccc2)o1)N1CC(C)(C)[C@@H](Oc2ccc(C#N)c(C(F)(F)F)c2)C1=O | 3.09 | – | – | CL free [4]: 43.87 µL/min/mg; inhibition [9]: 62%; bioavailability [5]: 25%; solubility [6]: 3.7 µg/mL (≈ 7.86 µM); fraction unbound [7]: 0.0181; CL free [8]: 4294 mL/min/kg
8 | Cc1nnc(CN2CC(C)(C)[C@@H](Oc3ccc(C#N)c(C(F)(F)F)c3)C2=O)o1 | 0.97 | – | 6.20 | solubility [6]: 217 µg/mL (≈ 550 µM)
9 | CC1(C)CN(CCO)C(=O)[C@@H]1Oc1ccc(C#N)c(C(F)(F)F)c1 | 1.03 | – | 6.58 | –
10 | CCCCN1CC(C)(C)[C@@H](Oc2ccc(C#N)c(C(F)(F)F)c2)C1=O | 2.12 | 85 | – | –
11 | CC(O)(CO)CN1CC(C)(C)[C@@H](Oc2ccc(C#N)c(C(F)(F)F)c2)C1=O (stereo in doubt; 24) | 1.01 | 17 | – | –
12 | CCCN1CC(C)(C)[C@@H](Oc2ccc(C#N)c(C(F)(F)F)c2)C1=O | 1.45 | 88 | – | –
13 | CNC(=O)CN1CC(C)(C)C(Oc2ccc(C#N)c(C(F)(F)F)c2)C1=O (racemic) | 0.85 | 23 | – | –
14 | CC1(C)CN(CCC#N)C(=O)[C@@H]1Oc1cc(C(F)(F)F)c(C#N)cn1 | 1.16 | 47 | – | –
15 | CC1(C)CN(CCCO)C(=O)[C@@H]1Oc1ccc(C#N)c(C(F)(F)F)c1 | 1.11 | 87 | – | –
16 | CC(O)CN1CC(C)(C)[C@@H](Oc2ccc(C#N)c(C(F)(F)F)c2)C1=O (stereo in doubt; 18) [listing 2 of 2 here] | – | – | 6.67 | –
17 | CC(=O)CN1CC(C)(C)[C@@H](Oc2ccc(C#N)c(C(F)(F)F)c2)C1=O | 0.91 | – | 6.58 | –

Row | Structure (SMILES) | fold change (FC) [1] | inhibition [2] [%] | pIC50 [3] | other results
18 | CC(O)(CO)CN1CC(C)(C)[C@@H](Oc2ccc(C#N)c(C(F)(F)F)c2)C1=O (stereo in doubt; 25) | 0.92 | 27 | – | –
19 | CC(CO)CN1CC(C)(C)[C@@H](Oc2ccc(C#N)c(C(F)(F)F)c2)C1=O (stereo in doubt; 22) | 1.01 | 96 | – | –
20 | CC(CO)N1CC(C)(C)[C@@H](Oc2ccc(C#N)c(C(F)(F)F)c2)C1=O (stereo in doubt; 14) [listing 2 of 2 here] | – | – | 6.43 | –
21 | CC1(C)CN(CC#N)C(=O)[C@@H]1Oc1ccc(C#N)c(C(F)(F)F)c1 | 2.75 | 89 | – | –
22 | CC(CO)CN1CC(C)(C)[C@@H](Oc2ccc(C#N)c(C(F)(F)F)c2)C1=O (stereo in doubt; 23) [listing 1 of 2 here] | 0.95 | – | – | –
23 | CC1(C)CN(CCC#N)C(=O)[C@@H]1Oc1ccc(C#N)cc1 | 0.95 | 10 | – | –
24 | CC1(C)CN(C(C)(C)CO)C(=O)[C@@H]1Oc1ccc(C#N)c(C(F)(F)F)c1 | 0.91 | – | 6.12 | –
25 | CC(c1nnc(-c2cccc(F)c2)o1)N1CC(C)(C)C(Oc2ccc(C#N)c(C(F)(F)F)c2)C1=O (racemic) | 1.43 | – | 7.11 | CL free [4]: 115 µL/min/mg; bioavailability [5]: 10%; solubility [6]: 3.8 µg/mL (≈ 7.78 µM); fraction unbound [7]: 0.00825; CL free [8]: 1585 mL/min/kg
26 | CC(C)(O)CN1CC(C)(C)[C@@H](Oc2ccc(C#N)c(C(F)(F)F)c2)C1=O | 0.9 | 29 | – | –
27 | CC1(C)CN(CCC#N)C(=O)[C@@H]1Oc1ccc(C#N)c(Cl)c1 | 0.99 | – | 7.17 | solubility [6]: 159 µg/mL (≈ 500 µM)
28 | CC(O)CN1CC(C)(C)[C@@H](Oc2ccc(C#N)c(C(F)(F)F)c2)C1=O (single isomer, unassigned) [listing 1 of 2 here] | – | – | 6.01 | –
29 | CC(CO)N1CC(C)(C)[C@@H](Oc2ccc(C#N)c(C(F)(F)F)c2)C1=O (stereo in doubt; 15) [listing 2 of 2 here] | 1.02 | – | – | –
30 | CC1(C)CNC(=O)[C@@H]1Oc1ccc(C#N)c(C(F)(F)F)c1 | 1.31 | – | 6.98 | –
31 | CC(O)CN1CC(C)(C)[C@@H](Oc2ccc(C#N)c(C(F)(F)F)c2)C1=O (single isomer, unassigned) [listing 2 of 2 here] | 0.97 | – | – | –
32 | CC1(C)CN(CCC#N)C(=O)[C@@H]1Oc1ccc(C#N)c(C(F)(F)F)c1 | 0.89 | – | 6.88 | CL free [4]: 19.1 µL/min/mg; bioavailability [5]: 64%; solubility [6]: 57 µg/mL (≈ 162 µM); fraction unbound [7]: 0.226; CL free [8]: 170 mL/min/kg
33 | CC(CO)CN1CC(C)(C)[C@@H](Oc2ccc(C#N)c(C(F)(F)F)c2)C1=O (stereo in doubt; 23) [listing 2 of 2 here] | – | – | 6.43 | –
